Usually solubility (kinetic) stands for solubility judged after dilution from a stock solution rather than from solid.

Consider 52 compounds from PubChem BioAssay AID1996.

≈ marks a conversion by molar mass, not a printed value.

The conditions of the data set: buffer; pH 7.4; 200.0 µM.
As to `Cn1cc(CCCC(=O)NCc2ccccc2)c2ccccc21`, the kinetic solubility worked out at 29.2 µg/mL (≈ 95.3 µM).
Turning to `O=C1C(Cc2cnc[nH]2)NC(=S)N1c1ccccc1` (configuration not stated), the solubility (kinetic) came to 37.4 µg/mL (≈ 137 µM).
In the case of `Cn1c(SCC(=O)NCC2COc3ccccc3O2)nnc1C(F)(F)F` (configuration not stated) it was greater than 58.3 µg/mL.
The compound `CCCCCNC(=O)C1c2ccccc2Oc2ccccc21` came in with a kinetic solubility of less than 0.6 µg/mL.
On to `N#C/C(=C\c1ccc[nH]1)C(=O)Nc1ccccc1Cl`, for which the solubility (kinetic) was less than 0.2 µg/mL.
The compound `O=C(O)CCCN1C(=O)/C(=C/c2ccncc2)SC1=S` had a solubility (kinetic) greater than 46.3 µg/mL.
Under `Cc1cc(C)c2c(=O)c(/C=C3\NC(=S)NC3=O)coc2c1` stands 0.8 µg/mL (≈ 2.66 µM); under `CCOc1ccc(S(=O)(=O)N2CCN(c3ncccn3)CC2)cc1`, 2.7 µg/mL (≈ 7.75 µM).
Under `O=C(/C=C/Sc1ccc(C(F)(F)F)cn1)c1ccccc1` stands less than 0.7 µg/mL; under `COCCSc1ncnc2c1oc1nc3c(cc12)COC(C)(C)C3`, 43 µg/mL (≈ 124 µM).
In the case of `CN(C)CCCNc1nc(N)c([N+](=O)[O-])c(NCc2ccccc2)n1` it was 44.3 µg/mL (≈ 128 µM); in that of `COc1ccc(Br)cc1CN(C)CC(=O)Nc1cccc(S(=O)(=O)N2CCCC2)c1.O=C(O)C(=O)O`, 12.9 µg/mL; in that of `COc1ccc(S(=O)(=O)Nc2c(C)nn(C)c2C)cc1Br`, greater than 56.1 µg/mL.
For `Cc1cc(C)nc(SCc2ccc(Cl)cc2)n1`, the solubility (kinetic) amounted to 0.6 µg/mL (≈ 2.27 µM).
In the case of `CCOC(=O)CNc1nc(Cl)nc(Nc2ccc(Cl)cc2)n1` it was less than 0.1 µg/mL.
Under `COc1ccc(Cl)cc1C(=O)NC(=S)Nc1nc(C)cc(C)n1` stands 0.4 µg/mL (≈ 1.14 µM); under `CC(=O)N/C(N)=N/c1nc2cc(C)ccc2o1`, 3.3 µg/mL (≈ 14.2 µM); under `C=CCNC(=O)COC(=O)c1c2c(nc3ccccc13)CCC2`, 40.9 µg/mL (≈ 132 µM).
Consider `Cc1cc2c(cc1S(=O)(=O)N1CCOCC1)NC(=O)CO2`, for which the solubility (kinetic) was greater than 46.9 µg/mL.
In the case of `CCCCN(C(=O)Nc1ccccc1)C1CCS(=O)(=O)C1` (configuration not stated) it was greater than 46.6 µg/mL.
With `CCOc1ccc(Br)cc1CN(CC)CC.Cl`, the kinetic solubility is greater than 48.4 µg/mL.
In the case of `CN(Cc1cccs1)C(=O)COC(=O)CNC(N)=O` it was greater than 42.8 µg/mL.
Under `Cc1ccc(S(=O)(=O)Nc2cccc3ncccc23)cc1` stands 31.1 µg/mL (≈ 104 µM); under `Cc1ccc(-n2c(=O)[nH]c3c(oc4ccccc43)c2=O)cc1`, 38.8 µg/mL (≈ 133 µM).
In the case of `CCOC(=O)Nc1cc(NC(=O)OCC)c(C)nc1C` it was greater than 42.2 µg/mL.
In the case of `O=C(OCC(=O)N1CCCCC1)c1ccc(OC(F)(F)F)cc1`, the solubility (kinetic) amounted to 16.2 µg/mL (≈ 48.9 µM).
`Cc1ccc(CCC(=O)Nc2ccc(C#N)cc2)o1` had a kinetic solubility of 37 µg/mL (≈ 146 µM).
In turn, `O=C1OC(NCc2cccnc2)(c2ccc(Cl)cc2)c2ccccc21` (configuration not stated) yielded a solubility (kinetic) greater than 52.6 µg/mL.
Compound `C/C(=N\O)C(=O)Nc1ccccc1` displayed a solubility (kinetic) greater than 26.7 µg/mL.
Under `O=C(Nc1ccccc1N1CCCCC1)c1cccc(Cl)c1` stands less than 0.3 µg/mL; under `O=C1CSC(c2cccc([N+](=O)[O-])c2)N1C1CC2CCC1C2` (configuration not stated), 11.2 µg/mL (≈ 35.2 µM).
Under `Br.COc1ccc(C2=CSC3=NCCN23)cc1OC` stands greater than 51.5 µg/mL; under `CSc1ccccc1C(=O)Nc1ccc2c(c1)CCC2`, 16.8 µg/mL (≈ 59.3 µM); under `O=C(CN1C(=O)NC2(CCc3ccccc32)C1=O)NCc1cccc(C(F)(F)F)c1` (configuration not stated), 55.2 µg/mL (≈ 132 µM).
Under `CC1C(=O)NC(=O)C1c1ccccc1` (configuration not stated) stands greater than 28.4 µg/mL; under `O=C(CCCOc1ccc(Cl)cc1Cl)Nc1ccccn1`, 0.6 µg/mL (≈ 1.85 µM).
In the case of `O=C(CC(=O)c1ccccc1)Nc1cc([N+](=O)[O-])ccc1Cl`, the solubility (kinetic) stood at 0.6 µg/mL (≈ 1.88 µM).
In the case of `COc1ccc(NC(=O)C2C3CCC(O3)C2C(=O)O)c(OC)c1` (configuration not stated) it was greater than 48.2 µg/mL.
In the case of `Cc1noc2ncnc(N3CCCCC3)c12` it was 27.8 µg/mL (≈ 127 µM).
`Cc1ccc(CNC(=O)C(Cc2ccccc2)n2cccc2)cc1` (configuration not stated) yielded a kinetic solubility of 5.3 µg/mL (≈ 16.6 µM).
In turn, `COc1cc(C)ccc1OCCON1C(=O)CCC1=O` showed a kinetic solubility greater than 41.9 µg/mL.
On to `Cc1nnc(NC(=O)CSc2nnc(C)c(=O)n2N)s1`, for which the kinetic solubility is greater than 47 µg/mL.
`COc1ccc(OC)c(Nc2cc(C)c3ccccc3n2)c1` showed a solubility (kinetic) of 1.4 µg/mL (≈ 4.76 µM).
Under `Cc1ccoc1C(=O)N1CCN(C(=O)c2occc2C)CC1` stands greater than 45.3 µg/mL; under `CCN/C=C(\C#N)S(=O)(=O)c1ccc(Br)cc1`, 34.8 µg/mL (≈ 110 µM); under `Cc1cc(C)nc(SCCC(=O)Nc2ccc(F)cc2)n1`, greater than 45.8 µg/mL.
Under `O=C(c1cc(-c2ccccc2)on1)N1CCC2(CC1)OCCO2` stands greater than 47.2 µg/mL.
The compound `O=C(COC(=O)c1ccc([N+](=O)[O-])o1)NCCc1ccccc1` showed a solubility (kinetic) greater than 47.7 µg/mL.
In the case of `COc1cccc(-c2cc(C(=O)NC3CCCCC3)no2)c1` it was less than 0.3 µg/mL; in that of `CCN(c1ccccc1)S(=O)(=O)c1ccc2ccccc2c1`, 4.9 µg/mL (≈ 15.7 µM).
In the case of `CCCCOc1ccc(Cc2c(O)nc(SC)[nH]c2=O)cc1` it was 20 µg/mL (≈ 62.4 µM); in that of `Cc1nc(Nc2cccc(O)c2)c2oc3ccccc3c2n1`, 2 µg/mL (≈ 6.87 µM).
